Where “and” joins values, the source holds several entries; their conditions need not be identical. Equal entries are not always repeated. Numbered stars: 1 amine (or outer) side, 2 acyl side, 3 side chain; on linkers, the order of the positions; unused ones are H or OH. Bridge positions count the residues as written; N and C are the ends. Square brackets hold non-standard residues; d marks the D form. Peptide text beside a SMILES is read from it. * marks the point of attachment. d1Nal = N[C@H](Cc1cccc2ccccc12)C(=O)O; Asu = N[C@@H](CCCCCC(=O)O)C(=O)O; X1 = O=C(C(N[*:1])S[*:3])[*:2]; Ahp = NCCCCCCC(=O)O; Bn = c1ccc(C*)cc1; Mpa = O=C(O)CCS
Key:
[1] = molecular target: Somatostatin receptor type 2 (Homo sapiens, UniProt P30874)
Chain of Somatostatin receptor type 2 (P30874 whole entry): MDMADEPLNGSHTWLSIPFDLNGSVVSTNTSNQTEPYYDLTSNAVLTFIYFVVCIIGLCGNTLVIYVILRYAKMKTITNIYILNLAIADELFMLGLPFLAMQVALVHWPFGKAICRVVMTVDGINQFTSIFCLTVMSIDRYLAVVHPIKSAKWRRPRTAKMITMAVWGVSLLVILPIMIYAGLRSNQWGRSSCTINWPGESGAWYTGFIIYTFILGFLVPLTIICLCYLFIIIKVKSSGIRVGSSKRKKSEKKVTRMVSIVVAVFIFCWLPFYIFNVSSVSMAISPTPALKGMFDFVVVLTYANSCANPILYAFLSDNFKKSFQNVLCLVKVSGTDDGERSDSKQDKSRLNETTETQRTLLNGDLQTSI

[2] = molecular target: Somatostatin receptor type 4 (Homo sapiens, UniProt P31391)
Chain of Somatostatin receptor type 4 (P31391 whole entry): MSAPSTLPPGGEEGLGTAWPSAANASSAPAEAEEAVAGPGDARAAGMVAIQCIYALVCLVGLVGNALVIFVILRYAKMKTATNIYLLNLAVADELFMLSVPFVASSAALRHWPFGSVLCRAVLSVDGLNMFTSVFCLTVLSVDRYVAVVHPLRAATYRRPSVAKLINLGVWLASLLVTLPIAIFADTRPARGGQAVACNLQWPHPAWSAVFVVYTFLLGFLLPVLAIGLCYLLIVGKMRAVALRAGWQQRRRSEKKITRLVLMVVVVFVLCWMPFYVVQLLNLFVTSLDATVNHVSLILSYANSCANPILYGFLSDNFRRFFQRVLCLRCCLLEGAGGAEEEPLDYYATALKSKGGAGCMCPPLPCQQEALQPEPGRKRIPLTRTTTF

[3] = molecular target: Somatostatin receptor type 3 (Homo sapiens, UniProt P32745)
Chain of Somatostatin receptor type 3 (P32745 whole entry): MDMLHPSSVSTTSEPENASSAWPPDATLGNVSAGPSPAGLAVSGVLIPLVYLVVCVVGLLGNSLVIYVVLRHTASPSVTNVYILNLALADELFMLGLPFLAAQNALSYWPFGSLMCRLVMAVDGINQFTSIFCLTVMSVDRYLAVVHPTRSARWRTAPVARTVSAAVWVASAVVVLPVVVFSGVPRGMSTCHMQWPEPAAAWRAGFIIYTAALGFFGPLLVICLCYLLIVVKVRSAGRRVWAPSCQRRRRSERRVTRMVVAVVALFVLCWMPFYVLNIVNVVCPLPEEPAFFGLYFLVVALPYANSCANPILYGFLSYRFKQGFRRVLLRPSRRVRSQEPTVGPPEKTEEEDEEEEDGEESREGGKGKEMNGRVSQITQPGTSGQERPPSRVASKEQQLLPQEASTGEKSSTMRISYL

[4] = molecular target: Somatostatin receptor type 5 (Homo sapiens, UniProt P35346)
Chain of Somatostatin receptor type 5 (P35346 whole entry): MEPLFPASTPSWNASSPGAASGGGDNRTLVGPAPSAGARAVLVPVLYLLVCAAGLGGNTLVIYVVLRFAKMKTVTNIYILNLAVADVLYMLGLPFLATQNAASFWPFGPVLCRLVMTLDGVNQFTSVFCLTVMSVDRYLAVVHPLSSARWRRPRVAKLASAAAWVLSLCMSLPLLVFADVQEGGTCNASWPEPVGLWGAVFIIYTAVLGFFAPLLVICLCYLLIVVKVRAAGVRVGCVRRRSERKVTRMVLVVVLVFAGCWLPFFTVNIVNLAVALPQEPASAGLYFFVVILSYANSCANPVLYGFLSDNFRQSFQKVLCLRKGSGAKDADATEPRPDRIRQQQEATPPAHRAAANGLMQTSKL

[5] = molecular target: Somatostatin receptor type 1 (Homo sapiens, UniProt P30872)
Chain of Somatostatin receptor type 1 (P30872 whole entry): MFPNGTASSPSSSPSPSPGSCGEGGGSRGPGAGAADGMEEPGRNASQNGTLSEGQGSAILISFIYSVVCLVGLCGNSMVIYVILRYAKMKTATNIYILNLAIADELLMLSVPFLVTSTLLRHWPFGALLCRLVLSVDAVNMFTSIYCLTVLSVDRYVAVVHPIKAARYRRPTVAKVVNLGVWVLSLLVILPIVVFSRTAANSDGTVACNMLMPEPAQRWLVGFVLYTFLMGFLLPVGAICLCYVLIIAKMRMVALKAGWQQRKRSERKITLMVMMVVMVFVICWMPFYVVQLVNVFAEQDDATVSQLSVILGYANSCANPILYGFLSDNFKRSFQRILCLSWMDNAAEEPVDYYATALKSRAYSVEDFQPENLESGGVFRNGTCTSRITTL

| Compound | Ki [1] | Ki [2] | Ki [3] | Ki [4] | Ki [5] |
| --- | --- | --- | --- | --- | --- |
| C[C@@H](O)[C@@H]1NC(=O)[C@H](CCCCN)NC(=O)[C@@H](Cc2c[nH]c3ccccc23)NC(=O)[C@H](Cc2ccccc2)NC(=O)[C@@H]2CCCN2C(=O)[C@H](Cc2ccccc2)NC1=O (cyclo(PF[dW]KTF)) | 3.39 nM | 2450 nM and 8710 nM | 457 nM and 148 nM | 67.6 nM | 4790 nM and 4170 nM |
| CC(C)[C@@H]1NC(=O)[C@H](CCCCN)NC(=O)[C@@H](Cc2c[nH]c3ccccc23)NC(=O)[C@H](Cc2ccc(O)cc2)NC(=O)[C@@H](NC(=O)[C@H](N)Cc2ccc3ccccc3c2)CSSC[C@@H](C(=O)N[C@H](C(N)=O)[C@@H](C)O)NC1=O [3-(2-Naphtyl)-D-Ala-L-Cys(1)-L-Tyr-D-Trp-L-Lys-L-Val-L-Cys(1)-L-Thr-NH2] | 0.54 nM and 0.55 nM | – | 13.8 nM and 9.55 nM | – | 219 nM |
| CC(C)[C@H](NC(=O)[C@H](CCCCN)NC(=O)[C@@H](Cc1c[nH]c2ccccc12)NC(=O)[C@H](Cc1ccc(O)cc1)NC(=O)[C@H](Cc1ccccc1)NC(=O)[C@H](N)Cc1ccccc1)C(=O)N[C@@H](Cc1ccccc1)C(=O)N[C@H](Cc1cccc2ccccc12)C(N)=O [BIM 23056] (H-[dF]FY[dW]KVF[d1Nal]-NH2) | 589 nM | 67.6 nM and 339 nM | 126 nM and 83.2 nM | 209 nM | 245 nM and 347 nM |
| CC(C)[C@@H]1NC(=O)[C@H](CCCCN)NC(=O)[C@@H](Cc2c[nH]c3ccccc23)NC(=O)[C@H](Cc2ccc(O)cc2)NC(=O)[C@@H](NC(=O)[C@H](N)Cc2ccccc2)CSSC[C@@H](C(=O)N[C@@H](Cc2c[nH]c3ccccc23)C(N)=O)NC1=O [CAS_71306] (H-[dF]CY[dW]KVCW-NH2; disulfide 2-7) | 0.45 nM and 0.25 nM | 56.2 nM and 275 nM | 42.7 nM and 12.3 nM | – | 83.2 nM and 110 nM |
| CC(C)[C@@H]1NC(=O)[C@H](CCCCN)NC(=O)[C@@H](Cc2c[nH]c3ccccc23)NC(=O)[C@H](Cc2ccc(O)cc2)NC(=O)CCSSC(C(=O)N[C@@H](Cc2ccccc2)C(N)=O)NC1=O (stereo not given in full) [CAS_117580-24-2] ([Mpa]Y[dW]KV[X1]F-NH2; disulfide 1-6) | 21.9 nM | 1050 nM and 2750 nM | 67.6 nM and 14.1 nM | 2750 nM | 8710 nM and > 10000 nM |
| C[C@@H](O)[C@H](NC(=O)[C@H](Cc1ccccc1)NC(=O)[C@@H](NC(=O)[C@H](CCCCN)NC(=O)[C@@H](Cc1c[nH]c2ccccc12)NC(=O)[C@H](Cc1ccccc1)NC(=O)[C@H](Cc1ccccc1)NC(=O)[C@H](N)Cc1ccccc1)[C@@H](C)O)C(N)=O [CAS_133073-82-2] (H-[dF]FF[dW]KTFT-NH2) | 3.16 nM | 2.34 nM and 6.31 nM | – | 35.5 nM | 4.27 nM and 2.4 nM |
| C[C@@H](O)[C@@H]1NC(=O)[C@H](Cc2ccc(O)cc2)NC(=O)[C@H]([C@@H](C)O)NC(=O)[C@H](CCCCN)NC(=O)[C@H](Cc2c[nH]c3ccccc23)NC(=O)[C@H](Cc2ccccc2)NC(=O)[C@H](Cc2ccccc2)NC(=O)[C@H](CC(N)=O)NC(=O)[C@H](CCCCN)NC(=O)CCCCC[C@@H](C(=O)O)NC(=O)[C@H](CO)NC1=O [CGP-23996] (KNFFWKTYTS[Asu]-OH; lactam N-11) | 1.15 nM | 1.7 nM and 2.14 nM | 1.51 nM and 0.52 nM | 214 nM | 4.68 nM and 4.9 nM |
| C[C@@H](O)[C@@H]1NC(=O)[C@H](CCCCN)NC(=O)[C@H](Cc2c[nH]c3ccccc23)NC(=O)[C@H](Cc2ccccc2)NC(=O)[C@H](Cc2ccccc2)NC(=O)[C@H](CC(N)=O)NC(=O)[C@H](CCCCN)NC(=O)[C@@H](NC(=O)[C@@H]2CCCN2)CSSC[C@@H](C(=O)N[C@@H](CCCCN)C(=O)O)NC(=O)[C@H](CO)NC(=O)[C@H](CO)NC(=O)[C@H](Cc2ccccc2)NC1=O [Cortistatin(1-14)] (H-PCKNFFWKTFSSCK-OH; disulfide 2-13) | 2.88 nM | 1.74 nM and 1.78 nM | 0.87 nM and 0.74 nM | 3.98 nM | – |
| CSCC[C@H](NC(=O)[C@H](CCCN=C(N)N)NC(=O)[C@@H](N)CC(=O)O)C(=O)N1CCC[C@H]1C(=O)N[C@H]1CSSC[C@@H](C(=O)N[C@@H](CCCCN)C(=O)O)NC(=O)[C@H](CO)NC(=O)[C@H](CO)NC(=O)[C@H](Cc2ccccc2)NC(=O)[C@H]([C@@H](C)O)NC(=O)[C@H](CCCCN)NC(=O)[C@H](Cc2c[nH]c3ccccc23)NC(=O)[C@H](Cc2ccccc2)NC(=O)[C@H](Cc2ccccc2)NC(=O)[C@H](CC(N)=O)NC(=O)[C@H](CCCN=C(N)N)NC1=O [Cortistatin] | 0.85 nM and 0.51 nM | 0.58 nM and 0.28 nM | 0.37 nM and 0.3 nM | 0.29 nM and 0.43 nM | 0.25 nM |
| C[C@@H](O)[C@@H]1NC(=O)[C@H](CCCCN)NC(=O)[C@@H](Cc2c[nH]c3ccccc23)NC(=O)[C@H](Cc2c[nH]c3ccccc23)NC(=O)[C@H](Cc2ccccc2)NC(=O)CCCCCCNC(=O)[C@H](Cc2ccccc2)NC1=O [L-362855] (cyclo([Ahp]FW[dW]KTF)) | – | 49 nM and 174 nM | 24 nM and 5.62 nM | – | 562 nM and 501 nM |
| C[C@@H](OCc1ccccc1)[C@@H]1NC(=O)[C@H](CCCCN)NC(=O)[C@@H](Cc2c[nH]c3ccccc23)NC(=O)[C@H](Cc2ccccc2)NC(=O)CCCCCCNC1=O [c[Aha-Phe-D-Trp-Lys-Thr(Bzl)]] (cyclo([Ahp]F[dW]KT(Bn))) | 1820 nM | 331 nM and 851 nM | 589 nM and 83.2 nM | 955 nM | 95.5 nM and 158 nM |
| CC(C)[C@@H]1NC(=O)[C@H](CCCCN)NC(=O)[C@@H](Cc2c[nH]c3ccccc23)NC(=O)[C@H](Cc2ccc(O)cc2)NC(=O)[C@H](C)N(C)C(=O)[C@H](Cc2ccccc2)NC1=O [seglitide] | – | – | – | 0.72 nM | > 10000 nM |

— BindingDB's records for doi:10.1007/pl00005197 (Novartis Pharma, 1998)
